Measurements as given in US11925623B2 (priority 2020, dated 2024).
Entries after “also recorded” stand apart in the source; their conditions may differ.

Tests used:
[1] = Brain permeability: brain and plasma levels after i.p. dosing (LC-MS/MS); assay type: in vivo, mouse; details: 50 mg/kg i.p.
Experimental: (§1) To ascertain the distribution of sulfanegen to the brain, plasma and brain samples were harvested from intraperitoneally treated animal groups and analyzed via LC-MS/MS. A saline solution of sulfanegen was injected into the mouse peritoneum at a dose of 50 mg/kg. Specifically, samples were collected at 0.25, 0.5, 1, 2, and 4 h after the drug administration. […] Samples were immediately centrifuged at 3000 rpm for 10 min at 4° C., and the separated top plasma layer was transferred into a new tube. Blood samples were stored at −80° C. until LC-MS/MS analysis. For brain samples, brain tissue was extracted from the animal and washed with copious volumes of ice-cold D-PBS for removal of blood from the sample. The brain samples were homogenized by adding 1:5 (w/v) of ice-cold D-PBS into the tube and using a mechanical homogenizer on them. Homogenized brain samples were stored at −80° C.

[2] = tested on: IL-6; assay: IL-6 ELISA of brain tissue, i.c.v Aβ1-42 mice; assay type: in vivo, C57/BL6 mice
Experimental: (§2) Eight-week old Wild type C57/BL6 mice were treated i.p. with sulfanegen at 50 and 100 mg/kg dose during the entire duration of experiment. The mice were injected with intracerebroventricular (i.c.v) Aβ1-42 on day 3 after initiation of drug treatment (1 nmol/mouse). Behavioral test (T-maze) was conducted 6 days after Aβ1-42 injection, which was followed by euthanization on day 8. Biochemical analysis of the collected brain tissues was conducted using ELISA method for quantitation of Aβ1-42, and immunohistochemical analysis for GFAP (inflammatory marker). The brain tissues were also analyzed for oxidative stress markers (GSH assay, see Example 5; and protein carbonyls, see Example 6). • Groups: • Saline control N=12, (N=5 study 2; N=7 study 3) • Abeta control N=15, (N=7 study 2; N=8 study 3) • Sulfanegen, 50 mg/kg, N=7 • Sulfanegen, 100 mg/kg, N=7
(§3) IL-6 ELISA (BMS603HS, invitrogen) was used. Brain tissue samples were assayed in duplicate. Briefly, the strips provided in the kit were washed with 400 μL wash buffer (lx) twice. 50 μL of brain homogenates or standards were added to 50 μL sample diluent (PBS) in each well. […] The samples were read at 450 nm (reference wavelength 620 nm). Quantification of IL-6 in each well was conducted using the standard curve and was normalized to the weight of brain tissue.

[3] = Oral bioavailability: plasma levels after i.v. and p.o. dosing (LC-MS/MS); assay type: in vivo; details: mouse
Experimental: as §1
Similar experimental design was used for determination of oral bioavailability of sulfanegen (Table 2). Plasma samples were collected after intravenous and oral administration of the compound and concentration of sulfanegen in these samples was determined using LC-MS/MS analysis.

[4] = tested on: APP/PS1 transgenic mice; assay: T-maze cognitive assessment in APP/PS1 transgenic mice; assay type: in vivo; details: 75 mg/kg i.p. for 12 weeks; 7 and 12 month cohorts
From the text: Spontaneous alternation in a T-maze was used to assess working memory abilities, based on the innate tendency of mice to alternate their choice of a goal arm based on their recall of the initial choice. The T-maze used was made of black plexiglass as per dimensions stated in Nat Protocol, 2006 [PMID: 17406205, www.nature.com/articles/nprot.2006.2]. Mice were placed in the start arm with the central divider in place so that when entering either of the goal arms the mice were not able to see the other one. The mice were allowed to move freely in the whole hall, and then, after being confined to the start arm for 30 seconds, the animal was allowed to move freely for a total of 15 arm entrees. […] The alternation percentage was calculated by dividing the number of times the animal entered alternating arms by 14 (free-choice trials). An arm entry is defined as the animal's tail tip entering the arm and repetitive arm entries as an animal re-entering the same arm three times in a row (e.g., 5 sequential entries into the same arm is 3 repetitive entries). Ratio of right and left arm entries was calculated to determine spatial preference of mice in different treatment groups. The data were analyzed using repeated measures analysis of variance (ANOVA) using Dunnett test. […]

[5] = Tolerability in i.c.v Aβ1-42 injected nontransgenic mice; assay type: in vivo, C57/BL6 mice
Experimental: as §2

[6] = tested on: GSH; assay: Brain glutathione (GSH) and GSSG level, i.c.v Abeta mouse model; assay type: in vivo, C57/BL6 mice
Experimental: as §2
The brain GSH and GSSG level were measured with Glutathione assay kit (Cayman Chemical, Ann Arbor, MI) using the i.c.v Abeta mouse model (see Example 1). A total of 50 μl of sample was added to each well, and 150 μl the assay cocktail (MES buffer, reconstituted cofactor mixture, enzyme mixture, water, and DTNB) were added to the wells. The absorbance was measured at 414 nm using Spectra Max M5 microplate reader. Assay range was calculated under the standard curve (0-16 μM GSH or 0-8 μM GSSG). Results were expressed as nmol/mg protein and ratio of GSH/GSSG. Total GSH levels were higher in sulfanegen treated groups at both doses 50 mg/Kg and 100 mg/Kg. […] Reduced GSH levels were slightly lower in […] but not statistically significant.
The brain tissue for biochemical analysis was rapidly homogenized in these buffers 1) TBS (20 mM Tris-HCl and 150 mM NaCl) buffer with protease inhibitors and 5 M Guanidine-HCl in 50 mM Tris-HCl buffer for Aβ1-42 ELISA assay (FIG. 11, see Example 11 below), 2) 50 mM IVIES buffer for GSH (FIG. 8C, see Example 5) and Protein Carbonyl assay (FIG. 8B, see Example 6), 3) RIPA buffer with protease inhibitors for TBARS assay (FIG. 8A, see Example 7). […]

[7] = tested on: SH-SY-5Y cells; assay: In vitro amyloid toxicity protection assay (CCK-8); assay type: cell-based
Experimental: SH-SY-5Y cells were seeded at a density of 20000/well in a 96-well plate and incubated overnight at 37° C. Following day, cells were treated with media according to their respective treatment group in triplicate. Vehicle-only treated cells are used as control groups. […] On day 3, Cells were incubated with media containing CCK-8 (<10%). After 3 hours of incubation, the absorbance is measured at 450 nm (reference wavelength 600 nm) using Me5 plate reader (Spectramax). The final volume in a well is kept at 100 μL CCK-8 (CK04, Dojindo labs) in this assay.

[8] = tested on: H2S; assay: Zn-agar entrapment H2S measurement in cell culture; assay type: cell-based
Experimental: To sterilized agar solution (1% w/v) was added 45 mM Zn Acetate and 4.5 mM NaOH (both prepared in sterile water). The solution was then applied to the non-adherent surface of the empty flasks and allowed to solidify. Cells were seeded in T-25 flask at 1 million cells/flask overnight. Cells were treated with sulfanegen at 0-500 μM concentrations and incubated for 6 hours. After the incubation period, the media was removed and 2 ml N,N-dimethyl-p-phenylenediamine chloride was added to the agar layer and incubated at RT for 10 mins. This was followed by addition of 400 μL of ferrous chloride and incubation for 20 minutes. The solution was then aliquoted into 96-well plate and absorbance was measured at 670 nm. The release of H2S was measured using a standard curve generated with NaSH under similar experimental conditions (incubation with NaSH was done for 1 hr).

[9] = tested on: protein carbonyls; assay: Protein carbonyl assay, i.c.v Abeta mouse model; assay type: in vivo, C57/BL6 mice
Experimental: as §2
The protein carbonyl content is used as a marker of protein oxidation in the i.c.v Abeta mouse model (see Example 1). The amount of protein-hydrozone produced is quantified spectrophotometrically by Protein Carbonyl Colorimetric assay kit (Cayman Chemical, Ann Arbor, MI). 100 μl of sample was transferred into two tubes, one containing 400 μl of DNPH and the other tube containing 400 μl of 2.5 M HCl. […] The absorbance was measured at 385 nm using Spectra Max M5 microplate reader. […]

[10] = tested on: i.c.v Aβ1-42 injected nontransgenic mice; assay: T-maze spontaneous alternation in i.c.v Aβ1-42 injected mice; assay type: in vivo, C57/BL6 mice
Experimental: as §2
Spontaneous alternation in a T-maze was used to assess working memory abilities, based on the innate tendency of mice to alternate their choice of a goal arm based on their recall of the initial choice. The T-maze used was made of black plexiglass as per dimensions stated in Nat Protocol, 2006 [PMID: 17406205, www.nature.com/articles/nprot.2006.2]. Mice were placed in the start arm with the central divider in place so that when entering either of the goal arms the mice were not able to see the other one. The mice were allowed to move freely in the whole hall, and then, after being confined to the start arm for 30 seconds, the animal was allowed to move freely for a total of 15 arm entrees. […] The alternation percentage was calculated by dividing the number of times the animal entered alternating arms by 14 (free-choice trials). […] Ratio of right and left arm entries was calculated to determine spatial preference of mice in different treatment groups. The data were analyzed using repeated measures analysis of variance (ANOVA) using Dunnett test.

[11] = tested on: TBARS (lipid peroxidation); assay: Lipid peroxidation (TBARS) assay, i.c.v Abeta mouse model; assay type: in vivo, C57/BL6 mice; details: 50 and 100 mg/Kg
Experimental: as §2
The extent of lipid peroxidation, in the i.c.v Abeta mouse model (see Example 1), was correlated to the levels of thiobarbituric (TBA) acid-reactive entities (TBARS assay). Homogenized brains were exposed to TBA-trichloroacetic acid (TCA)-chloridic acid reagent (HCl; 0.37% TBA, 0.25 N HCl, and 15% TCA) (1:1:1, 2 mL) and incubated for 15 minutes at […]. […] Total protein was determined through the BCA protein assay. […]

[12] = tested on: TNFα; assay: TNFα ELISA of brain tissue, i.c.v Aβ1-42 mice; assay type: in vivo, C57/BL6 mice; details: 50 and 100 mg/kg i.p.; no difference between doses
Experimental: as §2
as §3, with “TNFα” for “IL-6”, “kit (BMS607HS,” for “(BMS603HS,”, “nm.” for “nm (reference wavelength 620 nm).”

O=C(O)C1(O)CSC(O)(C(=O)O)CS1 (stereo not drawn) [sulfanegen]
crossing of the blood brain barrier (BBB) [1]: able to cross the blood brain barrier
AUC, brain ([1]; samples 0.25-4 h): 51.495 µM·h
Kp ([1]; mouse, brain/plasma, intraperitoneal, read-out: B/P Ratio (Brain-Plasma ratio)): 0.751
AUC ([1]; mouse, plasma, ip, samples 0.25-4 h): 68.6 µM·h
brain IL-6 level ([2]; 50 mg/kg i.p.): reduction of increased IL-6 levels; also recorded: significant difference
brain IL-6 level ([2]; 100 mg/kg i.p.): Increase in IL-6
AUC ([3]; iv, 10 mg/kg, read-out: AUC, plasma, i.v.): 32.6 µM·h
bioavailability ([3]; oral, p.o. 50 mg/kg vs i.v. 10 mg/kg): 15.1%
AUC ([3]; po, 50 mg/kg, read-out: AUC, plasma, p.o.): 24.6 µM·h
cognitive function (T-maze spontaneous alternation) [4]: improved cognitive function
tolerability ([5]; 50 mg/kg i.p.): well tolerated
mice that died during the experiment ([5]; 100 mg/kg i.p.): Two mice (out of 7)
toxicity: liver and kidney enzymes ([5]; 100 mg/kg, total N=8/group): elevations in liver and kidney enzymes in 2 animals
body weights ([5]; 50 and 100 mg/kg i.p., compared to Aβ1-42-only control group): No marked decrease or increase in weights
other signs of distress ([5]; both tested doses (50 and 100 mg/kg i.p.)): No other signs of distress
total GSH levels in brain ([6]; 50 mg/Kg and 100 mg/Kg): higher
reduced GSH levels in brain ([6]; 100 mg/Kg, compared to both vehicle and amyloid beta treatment): significantly higher
GSH level as oxidative stress marker (legend of FIGS. 8A-8C) ([6]; 50 or 100 mg/Kg): significantly reduced
protection against Aβ1-42 reduction in cell viability ([7]; SH-SY-5Y, 20 μM Aβ1-42, CCK-8): prevented; also recorded: high protective effect
cell growth ([7]; SH-SY-5Y, with 20 μM Aβ1-42): increase in cell growth, even above the control levels
dose above which protective effect appears saturated ([7]; no difference at higher 500 μM dose): above 350 μM
H2S release ([8]; 500 μM as compared to 250 μM, 6 h): decrease
H2S release ([8]; up to 250 μM at 6 h, vs vehicle control): dose-dependent increase
protein carbonyl levels in brain ([9]; 50 mg/kg): significantly reduced
protein carbonyl levels (legend of FIGS. 8A-8C) ([9]; 50 or 100 mg/Kg): significantly reduced
cognitive behavior / cognitive impairment by T-maze ([10]; 50 and 100 mg/kg i.p.): marked improvement; also recorded: prevented cognitive impairment
T-maze alternation and repetition behavior ([10]; 50 and 100 mg/kg i.p., 6 days after Aβ1-42 injection): significant improvement
spatial bias or anxiety-like behavior in T-maze ([10]; i.p. sulfanegen-treated mice): did not exhibit spatial bias or anxiety-like behavior
TBARS (lipid peroxidation) levels in brain [11]: significantly reduced
brain TNFα level [12]: significant decrease; also recorded: significant difference
